Like-named read-outs stand apart in the source and are kept apart here.
How the values were obtained:
[1] = tested on: IL-1 production in human monocytes; experiment: CSAIDs bioassay (IL-1 dependent EL-4/IL2 induction assay, LPS-stimulated human monocytes); format: cell-based; conditions: Monocyte
Procedure: The biological assay employed to evaluate CSAIDs activity was the IL-1 dependent EL-4/IL2 induction assay (Simon, P. L. et al., J. Immuno. Meth. 84: 85-94 (1985)). Briefly, Human monocytes were plated in 24-well plates in LPS-free RPMI 1640 media containing 1% human AB serum at a concentration of 10^6 per millilitre per well and allowed to adhere for 1 h at 37° C.; non-adherent cells were removed by gentle washing. Test compounds or media were added to the cells 0 or 1 h before the addition of bacterial lipopolysaccharide (E. coli 001:B4; Difco, Detroit) at 10 ng/ml. The cultures were then incubated at various intervals as indicated at 37° C. in a humidified 5% CO2 atmosphere. At the end of the incubation period, culture supernatants were collected. The residual adherent monocytes were lysed in a buffer containing 0.15M octyl-glucopyranoside, 25 mM Hepes, and 0.5 mM phenylmethylsulfonylfluoride in saline. Both supernatants and cell lysates were clarified by centrifugation and assayed for IL-1 activity.
IL-1 activity was measured by its ability to stimulate the secretion of IL-2 by EL-4 (ATCC TIB181) cells in the presence of A23187 ionophore. Serial dilutions of the samples were incubated with 10^5 EL-4 cells in the presence of 2×10^−7 M calcium ionophore A23187. After overnight incubation, 0.1 ml of a cell-free supernatant from each culture was taken and incubated with 10^4 IL-2-dependent […] (ATCC-T11B214) cells. Following an additional 20 hours of incubation, the cultures were pulsed with 1 μCi of tritiated thymidine for 4 h. The cells were then harvested onto glass-fibre filters and the radioactivity deterrnined by liquid scintillation counting.

[2] = target: T1, CSAID binding protein (CSBP) in THP.1 cytosol (Homo sapiens, UniProt Q16539); experiment: CSAID binding assay with 3H-Compound I and THP.1 cytosol
T1 construct: endogenous in cells; host or cells: THP.1 (ATCC TIB 202), cytosolic fraction (100,000 x g supernatant)
T1 sequence (Q16539 whole entry): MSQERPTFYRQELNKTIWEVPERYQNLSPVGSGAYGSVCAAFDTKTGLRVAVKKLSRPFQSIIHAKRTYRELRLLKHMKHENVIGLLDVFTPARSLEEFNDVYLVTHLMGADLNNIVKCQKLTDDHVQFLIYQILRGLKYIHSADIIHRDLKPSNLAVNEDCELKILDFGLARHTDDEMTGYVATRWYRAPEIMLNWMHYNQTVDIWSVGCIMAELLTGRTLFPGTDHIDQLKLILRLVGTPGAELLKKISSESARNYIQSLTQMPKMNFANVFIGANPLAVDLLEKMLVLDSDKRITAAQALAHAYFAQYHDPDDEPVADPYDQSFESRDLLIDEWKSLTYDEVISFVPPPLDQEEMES

[3] = Table II, read-out: IC50 in competitive CSAID binding assay

Row | IC50 [2, 3] | Compound | IC50 ([1]; read-out: IC50 in the bioassay) | other results
1 | – | [N-]=[N+]=Nc1ccc(-c2nc(-c3cccc([125I])c3)c(-c3ccncc3)[nH]2)cc1 [Compound IV, 4-[2-(4-azidophenyl)-5-(3-^125Iodo-phenyl)-1H-imidazol-4-yl]pyridine] | – | IC50 ([1]; read-out: IC50 in a CSAIDs bioassay): 3000 nM; IC50 ([2]; read-out: IC50 in a competitive binding assay): 500 to 800 nM
2 | – | CCc1nc(-c2ccc(OC)cc2)[nH]c1-c1ccncc1 [Compound VIII] | > 5000 nM | –
3 | 154000 nM | CC(Cc1ccc(O)c(O)c1)C(C)Cc1ccc(O)c(O)c1 (stereo not drawn) [NDGA] | – | –
4 | – | N#Cc1ccc(-c2nc(-c3ccc(F)cc3)c(-c3ccnc4ccccc34)n2O)cc1 [Compound VII] | 20 nM | –
5 | 139000 nM | NC(=O)N1C(=O)/C(=C(\O)c2cccs2)c2cc(Cl)ccc21 [Tenidap] | – | –

— patent publication US6361773B1, “Antibodies produced against cytokine suppressive anti-inflammatory drug binding proteins” (SmithKline Beecham Corporation, priority 1993, dated 2002)
